This is an account of results in PubChem BioAssay (NCI).

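Each compound was tested at five concentrations against cells in 96-well plates for 48 hours. The concentration for 50% growth inhibition is given as GI50. TGI: total growth inhibition.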

The subject of the first assay is OVCAR-4 ovarian. The assay can be described thus: growth of human tumour cells (NCI), 48 h.
As to `S=C1NCCN1C1=Nc2ccccc2CO1`, the GI50 was greater than 100 µM and the TGI was greater than 100 µM.
As for `OCCNCO`, the TGI is greater than 100 µM.
Take `O=C1c2ccccc2-c2c1c1cc3c(cc1c(=O)n2CCCCl)OCO3`: the GI50 was greater than 100 µM and the TGI was greater than 100 µM.
With `COc1nc2c(cc1S(=O)(=O)c1ccccc1)CCc1c-2cnn1-c1ccccc1Cl`, the GI50 is 7.3 µM and the TGI is greater than 100 µM.
Compound `CC(C)(C)C1=NC(S)NC(CCC(=O)Nc2ccccc2[N+](=O)[O-])=C1` (stereo not drawn) yielded a TGI greater than 100 µM.

The test system of another assay is SF-268 CNS. The assay can be described thus: growth of human tumour cells (NCI), 48 h.
Take `NC1(CCCCCCCCCCC(=O)O)CNCCNCCNCCNC1`: the TGI is greater than 100 µM.
`NNC(=O)c1cnn(-c2ccnc3c(C(F)(F)F)cccc23)c1N`: the GI50 is greater than 100 µM and the TGI was greater than 100 µM.
`CC(=O)OCCc1cccnc1/C=N/O` displayed a TGI greater than 100 µM.
The compound `CCC1CCC2CCCC(C)N12` (stereo not drawn) gave a TGI greater than 100 µM.
Same read-out and setting: the same measure for `O=C1CC[C@H]2CNC(=O)C[C@H]2C1`: greater than 100 µM.
As for `COc1ccc(CNC(=O)COc2ccc(/C=N/Nc3nc4ccccc4s3)cc2)cc1`, the GI50 was 3.04 µM and the TGI worked out at 12.2 µM.
Compound `CCOC(=O)CCCO` gave a TGI greater than 100 µM.
Consider `CC1=CCCC(OC(N)=O)C1` (stereo not drawn), for which the TGI was greater than 100 µM.
In turn, `c1ccc(-c2nnc(-c3nn(-c4ccccc4)c4nc5ccccc5nc34)o2)cc1` registered a TGI greater than 100 µM.
The same measure, in the same setting: for `O=C(O)/C=C/C(=O)Nc1ncn[nH]1` the value was greater than 100 µM.
`O=[N+]([O-])c1ccc(NSc2ccccc2)cc1` yielded a TGI greater than 100 µM.
On the same count and under the same terms, the same measure for `COc1ccc(N=Cc2cc(OC)c(OC)c(OC)c2)cc1`: greater than 100 µM; for `COc1cc([C@@H]2c3cc4c(cc3[C@@H](NC(=O)c3cccc([N+](=O)[O-])c3)C3COC(=O)[C@@H]32)OCO4)cc(OC)c1O` (stereo partly drawn): 10.7 µM.
On to `COC(=O)[C@@H](C)C[C@H](Cc1ccccc1)NC(=O)c1nc([C@@H](C[C@H](C(C)C)N(C)C(=O)[C@@H](NC(=O)[C@H]2CCCN2C)C(C)C)OC(C)=O)sc1C`, for which the GI50 was 0.00712 µM and the TGI was greater than 25 µM.
`O=c1[nH]c(=O)n(C2CC(O)C(CO)O2)cc1C#Cc1c(F)c(F)c(F)c(F)c1F` (stereo not drawn) had a TGI greater than 100 µM.
In turn, `COC(=O)C(CC(=O)c1cc2c(cc1I)OCO2)Cc1cc(OC)c(OC)c(OC)c1I` (stereo not drawn) displayed a TGI greater than 100 µM.
As to `S=C1NCCN1C1=Nc2ccccc2CO1`, the GI50 is greater than 100 µM and the TGI was greater than 100 µM.
With `OCc1c(-c2cccc3ccccc23)sc(-c2cccc3ccccc23)c1CO`, the TGI was 26.9 µM.
In the case of `CN(C)CCNc1nc2ccccc2c2[nH]c3ccccc3c12`, the GI50 was 0.293 µM and the TGI came out at 1.82 µM.
Compound `OCCNCO` gave a TGI greater than 100 µM.
`Clc1cccc(NC=Nc2ccc(-c3nc4ccccc4s3)cc2)c1`: the GI50 is 10.6 µM and the TGI was determined as 46.4 µM.
For `O=C1c2ccccc2-c2c1c1cc3c(cc1c(=O)n2CCCCl)OCO3`, in that order: 51.7 µM and greater than 100 µM.
For `COc1nc2c(cc1S(=O)(=O)c1ccccc1)CCc1c-2cnn1-c1ccccc1Cl`, in that order: 17 µM and greater than 100 µM.
For the compound `CC(C)(C)C1=NC(S)NC(CCC(=O)Nc2ccccc2[N+](=O)[O-])=C1` (stereo not drawn), the TGI is greater than 100 µM.

A further assay has as its system SF-539 CNS. The assay can be described thus: growth of human tumour cells (NCI), 48 h.
In turn, `NC1(CCCCCCCCCCC(=O)O)CNCCNCCNCCNC1` came in with a TGI greater than 100 µM.
`NNC(=O)c1cnn(-c2ccnc3c(C(F)(F)F)cccc23)c1N`: the GI50 is greater than 100 µM and the TGI was greater than 100 µM.
Compound `CC(=O)OCCc1cccnc1/C=N/O` yielded a TGI greater than 100 µM.
Consider `CCC1CCC2CCCC(C)N12` (stereo not drawn), for which the TGI is greater than 100 µM.
`O=C1CC[C@H]2CNC(=O)C[C@H]2C1` registered a TGI greater than 100 µM.
With `COc1ccc(CNC(=O)COc2ccc(/C=N/Nc3nc4ccccc4s3)cc2)cc1`, the GI50 is 1.65 µM and the TGI turned out to be 4.18 µM.
Turning to `CCOC(=O)CCCO`, the TGI is greater than 100 µM.
`CC1=CCCC(OC(N)=O)C1` (stereo not drawn) displayed a TGI greater than 100 µM.
On to `c1ccc(-c2nnc(-c3nn(-c4ccccc4)c4nc5ccccc5nc34)o2)cc1`, for which the TGI was greater than 100 µM.
Same read-out and setting: for `O=C(O)/C=C/C(=O)Nc1ncn[nH]1` the value was greater than 100 µM.
As for `O=[N+]([O-])c1ccc(NSc2ccccc2)cc1`, the TGI turned out to be 44.6 µM.
On to `COc1ccc(N=Cc2cc(OC)c(OC)c(OC)c2)cc1`, for which the TGI is greater than 100 µM.
`COc1cc([C@@H]2c3cc4c(cc3[C@@H](NC(=O)c3cccc([N+](=O)[O-])c3)C3COC(=O)[C@@H]32)OCO4)cc(OC)c1O` (stereo partly drawn): the TGI was determined as 1.33 µM.
Turning to `COC(=O)[C@@H](C)C[C@H](Cc1ccccc1)NC(=O)c1nc([C@@H](C[C@H](C(C)C)N(C)C(=O)[C@@H](NC(=O)[C@H]2CCCN2C)C(C)C)OC(C)=O)sc1C`, the GI50 is 0.00339 µM and the TGI turned out to be 0.201 µM.
In turn, `O=c1[nH]c(=O)n(C2CC(O)C(CO)O2)cc1C#Cc1c(F)c(F)c(F)c(F)c1F` (stereo not drawn) had a TGI greater than 100 µM.
In turn, `O=C(O)Cc1c[nH]c2ccc(F)cc12` gave a TGI greater than 100 µM.
`COC(=O)C(CC(=O)c1cc2c(cc1I)OCO2)Cc1cc(OC)c(OC)c(OC)c1I` (stereo not drawn) yielded a TGI greater than 100 µM.
In the case of `S=C1NCCN1C1=Nc2ccccc2CO1`, the GI50 is greater than 100 µM and the TGI was greater than 100 µM.
`OCc1c(-c2cccc3ccccc23)sc(-c2cccc3ccccc23)c1CO` displayed a TGI of 28.8 µM.
Consider `CN(C)CCNc1nc2ccccc2c2[nH]c3ccccc3c12`, for which the GI50 was 0.891 µM and the TGI amounted to 3.06 µM.
`OCCNCO` yielded a TGI greater than 100 µM.
Take `Clc1cccc(NC=Nc2ccc(-c3nc4ccccc4s3)cc2)c1`: the GI50 was 17.8 µM and the TGI was determined as 34.1 µM.
